What all share (format): physicochemical
Series [1] can be described thus: Average particle diameter determined by light microscopy. The note with it: Example 14: propylene glycol, 0.2% Tween 80; 700 bar, room temperature, 30 minutes, degassed medium, nitrogen. The text has this:
10% tragacanth was dispersed in Miglyol 812 with addition of 1% Span 80 and microparticles prepared as described in example 1. The average diameter determined by light microscopy was 7.54 μm after 10 cycles at 1500 bar.
Preparation of a Clinical Batch Under Oxygen-Poor Conditions and protective gassing: azodicarbonamide (1) was dispersed with addition of Tween 80 (0.2%) analogously to example 12 in 2 kg propylene glycol and homogenized (homogenization pressure: 700 bar, room temperature) in a cyclical process for 30 minutes with a Micron LAB 60 (APV Deutschland GmbH, Lubeck, Germany). Propylene glycol was degassed beforehand by heating. The product container was kept under nitrogen. The average diameter determined by light microscopy was 5.45 μm after 30 minutes' homogenization time.

Series [2] is described as follows: Particle size by laser diffractometry (LD, Coulter LS230).
Series [3] in a line: Particle size by photon correlation spectroscopy (PCS, Zetasizer 4). The note with it: Example 2: anhydrous glycerol, 20 cycles at 1500 bar. The text has this:
The characterization of the superfine microparticle dispersions and nanoparticles was by means of laser diffractometry (LD) (Coulter LS230, Coulter Electronics, Miami, USA) and photon correlation spectroscopy (PCS) (Zetasizer 4, Malvern Instruments, Malvern, United Kingdom). Characterization parameters were the 50% (D50%), 90% (D90%) and 95% (D95%) LD diameter measured by LD. The PCS (measurement range approx. 3 nm-3 μm) gives the PCS diameter and, as a measure of the width of the distribution, the polydispersity index (PI) in the range from 0.000 (+ideal monodispersion) to 0.500 (very broad distribution), above 0.5 no further conclusions can be drawn with regard to the width of distribution.

Where [4] appears, read: Example 12: 10% in PEG 400, 0.5% Tween 80, 4 cycles at 1500 bar.
Where [5] appears, read: Example 1: 1% drug, 0.5% Tween 80, anhydrous glycerol, 6 cycles at 1500 bar, room temperature.
Where [6] appears, read: Example 3: anhydrous glycerol, 10 cycles at 1500 bar.
Where [7] appears, read: Example 3: purely aqueous dispersion (glycerol replaced by water), 10 cycles at 1500 bar.
[8] abbreviates: Example 6: 1.0% water, 4 cycles at 1500 bar.
[9] abbreviates: Example 6: anhydrous (0% water), 4 cycles at 1500 bar.
[10] abbreviates: Example 7: 10% water, 4 cycles at 1500 bar.
[11] abbreviates: Example 7: 30% water, 4 cycles at 1500 bar.
Setting [12] is: Example 8: 50% water, 4 cycles at 1500 bar.
Where [13] appears, read: Example 13: 10 cycles at 1500 bar.

This note sets out measurements from patent publication US8202540B1, “Method for controlled production of ultrafine microparticles and nanoparticles” (Abbott GmbH & Co., KG, priority 1999, dated 2012).

Consider `NC(=O)N=NC(N)=O` [azodicarbonamide], for which the “average diameter determined by light microscopy” value in series [1] was determined as 5.45 μm. In series [2] (setting [4]), the 50% diameter is listed as 3.0 μm, the D90% amounted to 6.2 μm and the D95% amounted to 7.2 μm.
With `CC1CN(c2nc(N(CCO)CC(C)(C)O)c3nc(-c4ccccc4)c(N4CC(C)OC(C)C4)nc3n2)CC(C)O1` (stereo not drawn) [drug from example 1, 1-[[2,7-bis(2,6-dimethyl-4-morpholinyl)-6-phenyl-4-pteridinyl]-(2-hydroxyethyl)-amino]-2-methyl-[cis[cis]]-propan-2-ol], the “average PCS diameter” value in series [3] came out at 950 nm. The “polydispersity index (PI)” value in series [3] is given as 0.513. In addition, in series [2] (setting [5]), the “D50% LD diameter” value came out at 1.7 μm. Also, the “D90% LD diameter” value in series [2] (setting [5]) was determined as 4.5 μm. The “D95% LD diameter” value in series [2] (setting [5]) worked out at 5.4 μm. Also, the D50% diameter in series [2] (setting [6]) worked out at 1.3 μm; in series [2] (setting [7]) it was 0.9 μm; in series [2] (setting [8]), 2.1 μm; in series [2] (setting [9]), 1.9 μm; in series [2] (setting [10]), 1.7 μm; in series [2] (setting [11]), 1.7 μm. Moreover, in series [2] (setting [12]), the D50% diameter is 1.5 μm. Besides, the D90% diameter in series [2] (setting [6]) came to 3.2 μm; in series [2] (setting [7]), 2.3 μm; in series [2] (setting [8]), 5.4 μm; in series [2] (setting [9]), 4.9 μm; in series [2] (setting [10]), 4.1 μm; in series [2] (setting [11]), 4.2 μm. For the same compound, the D90% diameter in series [2] (setting [12]) came out at 3.7 μm. Moreover, the 95% diameter in series [2] (Example 13: 0% water (pure glycerol), 10 cycles at 1500 bar) came out at 3.9 μm; in series [2] (Example 13: pure water, 10 cycles at 1500 bar) it was 2.8 μm. In addition, the “D50% across dispersion media of 0% to 100% water” value in series [2] (setting [13]) is on record as “little change”. The “difference in 95% diameter, pure glycerol vs pure water” value in series [2] (setting [13]) is “approx. 1.1 μm”. For the same compound, in series [2] (Example 13: pure glycerol (0% water), 1500 bar), the “difference in D95%, 2 cycles vs 10 cycles” value is “approx. 3.1 μm”. The D95% in series [2] (Example 13: pure glycerol (0% water), after 2 cycles at 1500 bar) turned out to be 7.0 μm.
